Source: publication PMC9586930, “Molecular insights into the distinct signaling duration for the peptide-induced PTH1R activation” (Nature Communications, 2022)
Positions count from the first letter of the chain named.

Assays:
Settings in all cases: for ΔpEC50±SEM: relative to WT, n = 3 in triplicate; for ΔpEC50±SEM / Span±SEM: mean ± SEM; for Span±SEM: window between maximal response (Emax) and vehicle, n = 3
PTH1R L174A mutant = molecular target: T1, PTH1R L174A mutant (Homo sapiens, UniProt Q03431, L174A); experiment: cAMP accumulation assay (GloSensor), PTH1R L174A; assay type: cell-based
T1 construct: a flag-tag was fused to the N terminal of full-length PTH1R (WT or mutant); expressed in transfected cells; host or cells: HEK293T
T1 sequence (Q03431 27-593 L174A): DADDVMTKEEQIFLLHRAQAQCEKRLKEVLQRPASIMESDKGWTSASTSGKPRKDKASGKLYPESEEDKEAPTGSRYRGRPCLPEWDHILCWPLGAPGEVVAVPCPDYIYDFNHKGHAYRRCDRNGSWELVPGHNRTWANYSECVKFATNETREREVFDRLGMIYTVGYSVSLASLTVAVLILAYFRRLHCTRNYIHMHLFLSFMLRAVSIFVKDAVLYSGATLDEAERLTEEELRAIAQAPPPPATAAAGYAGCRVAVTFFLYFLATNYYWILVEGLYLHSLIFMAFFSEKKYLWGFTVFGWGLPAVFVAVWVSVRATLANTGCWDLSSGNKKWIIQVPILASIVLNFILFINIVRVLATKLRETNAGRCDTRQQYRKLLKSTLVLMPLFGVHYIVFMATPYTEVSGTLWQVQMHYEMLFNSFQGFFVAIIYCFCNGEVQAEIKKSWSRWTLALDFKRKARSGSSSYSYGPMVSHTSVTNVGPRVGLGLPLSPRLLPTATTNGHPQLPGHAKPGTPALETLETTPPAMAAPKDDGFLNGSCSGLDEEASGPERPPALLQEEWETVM
Method: (§1) Human embryonic kidney 293 T (HEK293T, ATCC: CRL-1573) cells were transfected with a plasmid mixture consisting of pcDNA3.1-flag-PTH1R (WT or mutants) and the cAMP biosensor GloSensor-22F (Promega) at a ratio of 2:1 (see Supplementary Table 7 for a list of primers used in this study). After 24 h, transfected cells were plated onto a 384-well plate, which was treated with cell adherent reagent (Applygen) in advance. After another 12 h, cells were treated with Hank’s balanced salt solution for starvation and then incubated in CO2-independent media containing 4% GloSensor cAMP Reagent (Promega) at a volume of 5 μl per well and incubated for 20 min at RT before measurements for baseline luminescence (Spark Multimode microplate reader, TECAN). Next, test ligands were added at different concentrations from 10^−6 to 10^−13 M before second measurement. Finally, data were normalized to 100% of the maximal PTH (1-34) response for WT PTH1R using a sigmoidal dose-response in GraphPad Prism.
(§2) Statistical analyses were performed on at least three individual datasets and analysed using GraphPad Prism software. Bars represent differences in the calculated agonist potency (pEC50) and maximum agonist response (Emax) for each mutant relative to the WT receptor. Data are mean± s.e.m. from at least three independent experiments, performed in triplicates. ns, not significant, ^nsP > 0.01; ^*P < 0.01; ^**P < 0.001; ^***P < 0.0001 (one-way analysis of variance (ANOVA) followed by Dunnett’s test, compared with the response of the WT). For dose-response experiments, data were normalized and analyzed using nonlinear curve fitting for the log (agonist) versus response (three parameters) curves.

PTH1R L244A mutant = molecular target: T2, PTH1R L244A mutant (Homo sapiens, UniProt Q03431, L244A); experiment: cAMP accumulation assay (GloSensor), PTH1R L244A; assay type: cell-based
T2 construct: a flag-tag was fused to the N terminal of full-length PTH1R (WT or mutant); expressed in transfected cells; host or cells: HEK293T
T2 sequence (Q03431 27-593 L244A): T1 sequence (Q03431 27-593 L174A) with A148L, L218A
Method: as §1, §2

PTH1R F424A mutant = experiment: cAMP accumulation assay (GloSensor), PTH1R F424A; assay type: cell-based, human
Method: as §1, with “After” for “Human embryonic kidney 293 T (HEK293T, ATCC: CRL-1573) cells were transfected with a plasmid mixture consisting of pcDNA3.1-flag-PTH1R (WT or mutants) and the cAMP biosensor GloSensor-22F (Promega) at a ratio of 2:1 (see Supplementary Table 7 for a list of primers used in this study). After”
as §2, with “Bars represent differences in the calculated agonist potency (pEC50) and maximum agonist response (Emax) for each mutant relative to the WT receptor.” left out

Row | Substance | span (from the WT) (PTH1R L174A mutant; PTH1R L1741.26A, replicate 1) | ΔpEC50 (from the WT) (PTH1R L174A mutant; PTH1R L1741.26A, replicate 1) | span (from the WT) (PTH1R L174A mutant; PTH1R L1741.26A, replicate 2) | ΔpEC50 (from the WT) (PTH1R L174A mutant; PTH1R L1741.26A, replicate 2) | span (from the WT) (PTH1R L174A mutant; PTH1R L1741.26A, replicate 3) | ΔpEC50 (from the WT) (PTH1R L174A mutant; PTH1R L1741.26A, replicate 3) | ΔpEC50±SEM (PTH1R L174A mutant) | ΔpEC50 (from the WT) (PTH1R L174A mutant; replicate 1) | ΔpEC50 (from the WT) (PTH1R L174A mutant; replicate 2) | ΔpEC50 (from the WT) (PTH1R L174A mutant; replicate 3) | Span±SEM (PTH1R L174A mutant) | span (from the WT) (PTH1R L244A mutant; PTH1R L2442.71A, replicate 1) | ΔpEC50 (from the WT) (PTH1R L244A mutant; PTH1R L2442.71A, replicate 1) | span (from the WT) (PTH1R L244A mutant; PTH1R L2442.71A, replicate 2) | ΔpEC50 (from the WT) (PTH1R L244A mutant; PTH1R L2442.71A, replicate 2) | span (from the WT) (PTH1R L244A mutant; PTH1R L2442.71A, replicate 3) | ΔpEC50 (from the WT) (PTH1R L244A mutant; PTH1R L2442.71A, replicate 3) | ΔpEC50±SEM (PTH1R L244A mutant) | ΔpEC50 (from the WT) (PTH1R L244A mutant; replicate 1) | ΔpEC50 (from the WT) (PTH1R L244A mutant; replicate 2) | further results
1 | H-AVAEIQLMHQRAKWIQDARRRAFLHKLIAEIHTAEI-OH [LA-PTH, long-acting PTH analog, modified PTH/PTHrP hybrid] | 93.64 | -0.262 | 87.77 | -0.161 | 98.4 | -0.17 | -0.20±0.03 | -0.262 | -0.161 | -0.17 | 93.27±3.07 | 131 | -0.382 | 190.8 | -0.346 | 179.4 | -0.43 | -0.39±0.02 | -0.382 | -0.346 | ΔpEC50 (from the WT) (PTH1R L244A mutant; replicate 3): -0.43; Span±SEM (PTH1R L244A mutant): 167.07±18.33; span (from the WT) (PTH1R F424A mutant; PTH1R F4246.56A, replicate 1): 141.3; ΔpEC50 (from the WT) (PTH1R F424A mutant; PTH1R F4246.56A, replicate 1): -1.04; span (from the WT) (PTH1R F424A mutant; PTH1R F4246.56A, replicate 2): 117.4; ΔpEC50 (from the WT) (PTH1R F424A mutant; PTH1R F4246.56A, replicate 2): -1.083; span (from the WT) (PTH1R F424A mutant; PTH1R F4246.56A, replicate 3): 173.2; ΔpEC50 (from the WT) (PTH1R F424A mutant; PTH1R F4246.56A, replicate 3): -1.36; ΔpEC50±SEM (PTH1R F424A mutant): -1.16±0.1; ΔpEC50 (from the WT) (PTH1R F424A mutant; replicate 1): -1.04; ΔpEC50 (from the WT) (PTH1R F424A mutant; replicate 2): -1.083; ΔpEC50 (from the WT) (PTH1R F424A mutant; replicate 3): -1.36
2 | H-AVSEHQLLHDKGKSIQDLRRRELLEKLL-{Aib}-KLHTA-NH2 [ABL, Abaloparatide, an analog of PTHrP, short-acting PTH1R agonist] | 94.46 | -0.37 | 117 | -0.52 | 129.9 | -0.682 | -0.52±0.09 | -0.37 | -0.52 | -0.682 | 113.79±10.36 | 180 | -2.593 | 247.7 | -2.562 | 245.8 | -2.458 | -2.54±0.04 | -2.593 | -2.562 | ΔpEC50 (from the WT) (PTH1R L244A mutant; replicate 3): -2.458; Span±SEM (PTH1R L244A mutant): 224.50±22.26; span (from the WT) (PTH1R F424A mutant; PTH1R F4246.56A, replicate 1): 148.5; ΔpEC50 (from the WT) (PTH1R F424A mutant; PTH1R F4246.56A, replicate 1): -1.943; span (from the WT) (PTH1R F424A mutant; PTH1R F4246.56A, replicate 2): 140.3; ΔpEC50 (from the WT) (PTH1R F424A mutant; PTH1R F4246.56A, replicate 2): -2.006; span (from the WT) (PTH1R F424A mutant; PTH1R F4246.56A, replicate 3): 170.8; ΔpEC50 (from the WT) (PTH1R F424A mutant; PTH1R F4246.56A, replicate 3): -2.077; ΔpEC50±SEM (PTH1R F424A mutant): -2.01±0.04; ΔpEC50 (from the WT) (PTH1R F424A mutant; replicate 1): -1.943; ΔpEC50 (from the WT) (PTH1R F424A mutant; replicate 2): -2.006; ΔpEC50 (from the WT) (PTH1R F424A mutant; replicate 3): -2.077; Span±SEM (PTH1R F424A mutant): 153.20±9.11
3 | H-SVSEIQLMHNLGKHLNSMERVEWLRKKLQDVHNF-OH [PTH, Teriparatide, human PTH 1-34, long-acting peptide agonist of PTH1R] | 90.7 | -0.41 | 103.2 | -0.706 | 154.9 | -0.481 | -0.53±0.09 | -0.41 | -0.706 | -0.481 | 116.27±19.65 | 138.7 | -0.566 | 168.7 | -0.398 | 186.9 | -0.464 | -0.48±0.05 | -0.566 | -0.398 | ΔpEC50 (from the WT) (PTH1R L244A mutant; replicate 3): -0.464; Span±SEM (PTH1R L244A mutant): 150.17±18.04; span (from the WT) (PTH1R F424A mutant; PTH1R F4246.56A, replicate 1): 181.9; ΔpEC50 (from the WT) (PTH1R F424A mutant; PTH1R F4246.56A, replicate 1): -1.332; span (from the WT) (PTH1R F424A mutant; PTH1R F4246.56A, replicate 2): 192.6; ΔpEC50 (from the WT) (PTH1R F424A mutant; PTH1R F4246.56A, replicate 2): -1.492; span (from the WT) (PTH1R F424A mutant; PTH1R F4246.56A, replicate 3): 166.2; ΔpEC50 (from the WT) (PTH1R F424A mutant; PTH1R F4246.56A, replicate 3): -1.466; ΔpEC50±SEM (PTH1R F424A mutant): -1.43±0.05; ΔpEC50 (from the WT) (PTH1R F424A mutant; replicate 1): -1.332; ΔpEC50 (from the WT) (PTH1R F424A mutant; replicate 2): -1.492; ΔpEC50 (from the WT) (PTH1R F424A mutant; replicate 3): -1.466; Span±SEM (PTH1R F424A mutant): 143.97±16.16
